System: KG-1
Experiment: cell viability (% survival relative to DMSO control, bortezomib = 0%); higher = less cytotoxic
Conditions: 1 nM; 72 h
How it was run: (§1)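 Fifteen myeloid leukaemia cell lines were exposed to compounds at 1, 10, 100, 1000 or 10000 nM in 384-well plates for 72 h at 37 °C and 5% CO2. Viability was read by CellTiter-Glo luminescence and normalised, with vehicle as 100% and a 10 µM positive control as 0%. Values are percent survival averaged over duplicates.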

SMILES | cell viability [%]
O=C(O)CC[N+](=O)[O-] [3-nitropropionic acid] | 99
C=CC(=O)c1ccc(O)cc1 [4-Acryloylphenol] | 83.7
Cc1[nH]nc(C(F)(F)F)c1Cc1sc2c(c1C(=O)N1C[C@](C)(O)CO1)c(=O)n(C)c(=O)n2C(C)C [AZD3965] | 114
O=c1cc(-c2ccccc2)oc2c1ccc1ccccc12 [Alpha-Naphtoflavone] | 114

Same assay, conditions: 10 nM; 72 h

SMILES | cell viability [%]
CN(CCCOc1ccc(Cc2ccccc2)cc1)CCC(=O)O | 110
Cc1c2c(=O)n(-c3ccccc3Cl)[nH]c2cc(=O)n1Cc1ccccn1 | 105
COc1ccc2c(NC(=O)Nc3cccc(C(F)(F)F)n3)ccnc2c1 | 85
O=c1cc(N2CCOCC2)oc2c(-c3ccccc3)cccc12 | 106
O=C1C(SCCO)=C(SCCO)C(=O)c2ccccc21 | 90.2
Cc1nc(-c2ccccc2)sc1C(=O)Nc1ccc(S(N)(=O)=O)cc1 | 104
Cn1cc(-c2ccncc2)c(-c2ccc(OCc3ccc4ccccc4n3)cc2)n1 | 96.7
O=C(O)CC[N+](=O)[O-] [3-nitropropionic acid] | 91.2
C=CC(=O)c1ccc(O)cc1 [4-Acryloylphenol] | 92.7
Cc1[nH]nc(C(F)(F)F)c1Cc1sc2c(c1C(=O)N1C[C@](C)(O)CO1)c(=O)n(C)c(=O)n2C(C)C [AZD3965] | 118
O=c1cc(-c2ccccc2)oc2c1ccc1ccccc12 [Alpha-Naphtoflavone] | 89.4

Same assay, conditions: 100 nM; 72 h

SMILES | cell viability [%]
CN(CCCOc1ccc(Cc2ccccc2)cc1)CCC(=O)O | 104
Cc1c2c(=O)n(-c3ccccc3Cl)[nH]c2cc(=O)n1Cc1ccccn1 | 89.6
COc1ccc2c(NC(=O)Nc3cccc(C(F)(F)F)n3)ccnc2c1 | 92
O=c1cc(N2CCOCC2)oc2c(-c3ccccc3)cccc12 | 82.8
O=C1C(SCCO)=C(SCCO)C(=O)c2ccccc21 | 94.9
Cc1nc(-c2ccccc2)sc1C(=O)Nc1ccc(S(N)(=O)=O)cc1 | 98.5
Cn1cc(-c2ccncc2)c(-c2ccc(OCc3ccc4ccccc4n3)cc2)n1 | 110
O=C(O)CC[N+](=O)[O-] [3-nitropropionic acid] | 97.3
C=CC(=O)c1ccc(O)cc1 [4-Acryloylphenol] | 99.8
Cc1[nH]nc(C(F)(F)F)c1Cc1sc2c(c1C(=O)N1C[C@](C)(O)CO1)c(=O)n(C)c(=O)n2C(C)C [AZD3965] | 124
O=c1cc(-c2ccccc2)oc2c1ccc1ccccc12 [Alpha-Naphtoflavone] | 95.1

Same assay, conditions: 1000 nM; 72 h

SMILES | cell viability [%]
CN(CCCOc1ccc(Cc2ccccc2)cc1)CCC(=O)O | 108
Cc1c2c(=O)n(-c3ccccc3Cl)[nH]c2cc(=O)n1Cc1ccccn1 | 102
COc1ccc2c(NC(=O)Nc3cccc(C(F)(F)F)n3)ccnc2c1 | 93.9
O=c1cc(N2CCOCC2)oc2c(-c3ccccc3)cccc12 | 90.8
O=C1C(SCCO)=C(SCCO)C(=O)c2ccccc21 | 20.2
Cc1nc(-c2ccccc2)sc1C(=O)Nc1ccc(S(N)(=O)=O)cc1 | 93.3
Cn1cc(-c2ccncc2)c(-c2ccc(OCc3ccc4ccccc4n3)cc2)n1 | 102
O=C(O)CC[N+](=O)[O-] [3-nitropropionic acid] | 97.3
C=CC(=O)c1ccc(O)cc1 [4-Acryloylphenol] | 114
Cc1[nH]nc(C(F)(F)F)c1Cc1sc2c(c1C(=O)N1C[C@](C)(O)CO1)c(=O)n(C)c(=O)n2C(C)C [AZD3965] | 132
O=c1cc(-c2ccccc2)oc2c1ccc1ccccc12 [Alpha-Naphtoflavone] | 90.9

Same assay, conditions: 10000 nM; 72 h

SMILES | cell viability [%]
CN(CCCOc1ccc(Cc2ccccc2)cc1)CCC(=O)O | 92.6
Cc1c2c(=O)n(-c3ccccc3Cl)[nH]c2cc(=O)n1Cc1ccccn1 | 104
COc1ccc2c(NC(=O)Nc3cccc(C(F)(F)F)n3)ccnc2c1 | 120
O=c1cc(N2CCOCC2)oc2c(-c3ccccc3)cccc12 | 28.4
O=C1C(SCCO)=C(SCCO)C(=O)c2ccccc21 | -0.961
Cc1nc(-c2ccccc2)sc1C(=O)Nc1ccc(S(N)(=O)=O)cc1 | 102
Cn1cc(-c2ccncc2)c(-c2ccc(OCc3ccc4ccccc4n3)cc2)n1 | 87.4
O=C(O)CC[N+](=O)[O-] [3-nitropropionic acid] | 104
C=CC(=O)c1ccc(O)cc1 [4-Acryloylphenol] | 86.2
Cc1[nH]nc(C(F)(F)F)c1Cc1sc2c(c1C(=O)N1C[C@](C)(O)CO1)c(=O)n(C)c(=O)n2C(C)C [AZD3965] | 127
O=c1cc(-c2ccccc2)oc2c1ccc1ccccc12 [Alpha-Naphtoflavone] | 74.7

System: KU-812
Experiment: as above
Conditions: 1 nM; 72 h
How it was run: as §1

SMILES | cell viability [%]
CN(CCCOc1ccc(Cc2ccccc2)cc1)CCC(=O)O | 99.9
Cc1c2c(=O)n(-c3ccccc3Cl)[nH]c2cc(=O)n1Cc1ccccn1 | 88
COc1ccc2c(NC(=O)Nc3cccc(C(F)(F)F)n3)ccnc2c1 | 116
O=c1cc(N2CCOCC2)oc2c(-c3ccccc3)cccc12 | 115
O=C1C(SCCO)=C(SCCO)C(=O)c2ccccc21 | 104
Cc1nc(-c2ccccc2)sc1C(=O)Nc1ccc(S(N)(=O)=O)cc1 | 108
Cn1cc(-c2ccncc2)c(-c2ccc(OCc3ccc4ccccc4n3)cc2)n1 | 95.4
O=C(O)CC[N+](=O)[O-] [3-nitropropionic acid] | 95.5
C=CC(=O)c1ccc(O)cc1 [4-Acryloylphenol] | 82.9
Cc1[nH]nc(C(F)(F)F)c1Cc1sc2c(c1C(=O)N1C[C@](C)(O)CO1)c(=O)n(C)c(=O)n2C(C)C [AZD3965] | 91.7
O=c1cc(-c2ccccc2)oc2c1ccc1ccccc12 [Alpha-Naphtoflavone] | 98.8

Same assay, conditions: 10 nM; 72 h

SMILES | cell viability [%]
CN(CCCOc1ccc(Cc2ccccc2)cc1)CCC(=O)O | 105
Cc1c2c(=O)n(-c3ccccc3Cl)[nH]c2cc(=O)n1Cc1ccccn1 | 101
COc1ccc2c(NC(=O)Nc3cccc(C(F)(F)F)n3)ccnc2c1 | 102
O=c1cc(N2CCOCC2)oc2c(-c3ccccc3)cccc12 | 100
O=C1C(SCCO)=C(SCCO)C(=O)c2ccccc21 | 89.1
Cc1nc(-c2ccccc2)sc1C(=O)Nc1ccc(S(N)(=O)=O)cc1 | 102
Cn1cc(-c2ccncc2)c(-c2ccc(OCc3ccc4ccccc4n3)cc2)n1 | 103
O=C(O)CC[N+](=O)[O-] [3-nitropropionic acid] | 103
C=CC(=O)c1ccc(O)cc1 [4-Acryloylphenol] | 97.5
Cc1[nH]nc(C(F)(F)F)c1Cc1sc2c(c1C(=O)N1C[C@](C)(O)CO1)c(=O)n(C)c(=O)n2C(C)C [AZD3965] | 120
O=c1cc(-c2ccccc2)oc2c1ccc1ccccc12 [Alpha-Naphtoflavone] | 99.3

Same assay, conditions: 100 nM; 72 h

SMILES | cell viability [%]
CN(CCCOc1ccc(Cc2ccccc2)cc1)CCC(=O)O | 90.9
Cc1c2c(=O)n(-c3ccccc3Cl)[nH]c2cc(=O)n1Cc1ccccn1 | 92
COc1ccc2c(NC(=O)Nc3cccc(C(F)(F)F)n3)ccnc2c1 | 108
O=c1cc(N2CCOCC2)oc2c(-c3ccccc3)cccc12 | 56.3
O=C1C(SCCO)=C(SCCO)C(=O)c2ccccc21 | 99.2
Cc1nc(-c2ccccc2)sc1C(=O)Nc1ccc(S(N)(=O)=O)cc1 | 96.4
Cn1cc(-c2ccncc2)c(-c2ccc(OCc3ccc4ccccc4n3)cc2)n1 | 93.3
O=C(O)CC[N+](=O)[O-] [3-nitropropionic acid] | 99.8
C=CC(=O)c1ccc(O)cc1 [4-Acryloylphenol] | 96.4
Cc1[nH]nc(C(F)(F)F)c1Cc1sc2c(c1C(=O)N1C[C@](C)(O)CO1)c(=O)n(C)c(=O)n2C(C)C [AZD3965] | 112
O=c1cc(-c2ccccc2)oc2c1ccc1ccccc12 [Alpha-Naphtoflavone] | 96.3

Same assay, conditions: 1000 nM; 72 h

SMILES | cell viability [%]
CN(CCCOc1ccc(Cc2ccccc2)cc1)CCC(=O)O | 106
Cc1c2c(=O)n(-c3ccccc3Cl)[nH]c2cc(=O)n1Cc1ccccn1 | 100
COc1ccc2c(NC(=O)Nc3cccc(C(F)(F)F)n3)ccnc2c1 | 109
O=c1cc(N2CCOCC2)oc2c(-c3ccccc3)cccc12 | 95.1
O=C1C(SCCO)=C(SCCO)C(=O)c2ccccc21 | 20.9
Cc1nc(-c2ccccc2)sc1C(=O)Nc1ccc(S(N)(=O)=O)cc1 | 91
Cn1cc(-c2ccncc2)c(-c2ccc(OCc3ccc4ccccc4n3)cc2)n1 | 92.4
O=C(O)CC[N+](=O)[O-] [3-nitropropionic acid] | 99.2
C=CC(=O)c1ccc(O)cc1 [4-Acryloylphenol] | 97.7
Cc1[nH]nc(C(F)(F)F)c1Cc1sc2c(c1C(=O)N1C[C@](C)(O)CO1)c(=O)n(C)c(=O)n2C(C)C [AZD3965] | 89.8
O=c1cc(-c2ccccc2)oc2c1ccc1ccccc12 [Alpha-Naphtoflavone] | 96

Same assay, conditions: 10000 nM; 72 h

SMILES | cell viability [%]
CN(CCCOc1ccc(Cc2ccccc2)cc1)CCC(=O)O | 94.2
Cc1c2c(=O)n(-c3ccccc3Cl)[nH]c2cc(=O)n1Cc1ccccn1 | 98.1
COc1ccc2c(NC(=O)Nc3cccc(C(F)(F)F)n3)ccnc2c1 | 112
O=c1cc(N2CCOCC2)oc2c(-c3ccccc3)cccc12 | 54.8
O=C1C(SCCO)=C(SCCO)C(=O)c2ccccc21 | -0.694
Cc1nc(-c2ccccc2)sc1C(=O)Nc1ccc(S(N)(=O)=O)cc1 | 104
Cn1cc(-c2ccncc2)c(-c2ccc(OCc3ccc4ccccc4n3)cc2)n1 | 43.1
O=C(O)CC[N+](=O)[O-] [3-nitropropionic acid] | 88.1
C=CC(=O)c1ccc(O)cc1 [4-Acryloylphenol] | 36.1
Cc1[nH]nc(C(F)(F)F)c1Cc1sc2c(c1C(=O)N1C[C@](C)(O)CO1)c(=O)n(C)c(=O)n2C(C)C [AZD3965] | 98.9
O=c1cc(-c2ccccc2)oc2c1ccc1ccccc12 [Alpha-Naphtoflavone] | 89.9

System: ML-2
Experiment: as above
Conditions: 1 nM; 72 h
How it was run: as §1

SMILES | cell viability [%]
CN(CCCOc1ccc(Cc2ccccc2)cc1)CCC(=O)O | 105
Cc1c2c(=O)n(-c3ccccc3Cl)[nH]c2cc(=O)n1Cc1ccccn1 | 86.5
COc1ccc2c(NC(=O)Nc3cccc(C(F)(F)F)n3)ccnc2c1 | 101
O=c1cc(N2CCOCC2)oc2c(-c3ccccc3)cccc12 | 143
O=C1C(SCCO)=C(SCCO)C(=O)c2ccccc21 | 101
Cc1nc(-c2ccccc2)sc1C(=O)Nc1ccc(S(N)(=O)=O)cc1 | 111
Cn1cc(-c2ccncc2)c(-c2ccc(OCc3ccc4ccccc4n3)cc2)n1 | 101
O=C(O)CC[N+](=O)[O-] [3-nitropropionic acid] | 104
C=CC(=O)c1ccc(O)cc1 [4-Acryloylphenol] | 90
Cc1[nH]nc(C(F)(F)F)c1Cc1sc2c(c1C(=O)N1C[C@](C)(O)CO1)c(=O)n(C)c(=O)n2C(C)C [AZD3965] | 106
O=c1cc(-c2ccccc2)oc2c1ccc1ccccc12 [Alpha-Naphtoflavone] | 101

Same assay, conditions: 10 nM; 72 h

SMILES | cell viability [%]
CN(CCCOc1ccc(Cc2ccccc2)cc1)CCC(=O)O | 97
Cc1c2c(=O)n(-c3ccccc3Cl)[nH]c2cc(=O)n1Cc1ccccn1 | 112
COc1ccc2c(NC(=O)Nc3cccc(C(F)(F)F)n3)ccnc2c1 | 97.6
O=c1cc(N2CCOCC2)oc2c(-c3ccccc3)cccc12 | 103
O=C1C(SCCO)=C(SCCO)C(=O)c2ccccc21 | 96.2
Cc1nc(-c2ccccc2)sc1C(=O)Nc1ccc(S(N)(=O)=O)cc1 | 104
Cn1cc(-c2ccncc2)c(-c2ccc(OCc3ccc4ccccc4n3)cc2)n1 | 94.6
O=C(O)CC[N+](=O)[O-] [3-nitropropionic acid] | 107
C=CC(=O)c1ccc(O)cc1 [4-Acryloylphenol] | 90.7
Cc1[nH]nc(C(F)(F)F)c1Cc1sc2c(c1C(=O)N1C[C@](C)(O)CO1)c(=O)n(C)c(=O)n2C(C)C [AZD3965] | 116
O=c1cc(-c2ccccc2)oc2c1ccc1ccccc12 [Alpha-Naphtoflavone] | 102

Same assay, conditions: 100 nM; 72 h

SMILES | cell viability [%]
CN(CCCOc1ccc(Cc2ccccc2)cc1)CCC(=O)O | 103
